Test results from patent US9266878B2, “Phosphatidylinositol 3-kinase inhibitors” (Gilead Calistoga LLC, priority 2012, dated 2016).

Assays:
Test in all cases: Enzymatic activity of PI3K isoforms, TR-FRET assay (PIP3 formation)
Format in all cases: biochemical
PI3Kδ = PI3Kδ (Homo sapiens (Human), UniProt O00329); conditions: bound given in nM
In short: (§1)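 After 30 min at 25° C, reactions were quenched with 10 mM EDTA plus 10 nM labeled-PIP3 and 35 nM Europium-GRP-1, and TR-FRET was read (Ex 340, Em 615/665 nm). Enzymes were purified recombinant heterodimers; product PIP3 competes off the labeled tracer. Values given as IC50, nM.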

PI3Kβ = PI3Kβ (Homo sapiens (Human), UniProt P42338)
In short: (§2)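 IC50 (nM) reflects inhibition of PIP3 formation by purified recombinant heterodimeric PI3K, measured as loss of TR-FRET signal. The read-out comes from competition between enzyme-made PIP3 and labelled PIP3 for binding to the GRP-1 pleckstrin homology domain.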

PI3Kγ = PI3Kγ (Homo sapiens (Human), UniProt P48736)
In short: as §2

PI3Kα = PI3Kα (Homo sapiens (Human), UniProt P42336); conditions: bound given in uM
In short: as §1

Chain of PI3Kγ (P48736 whole entry): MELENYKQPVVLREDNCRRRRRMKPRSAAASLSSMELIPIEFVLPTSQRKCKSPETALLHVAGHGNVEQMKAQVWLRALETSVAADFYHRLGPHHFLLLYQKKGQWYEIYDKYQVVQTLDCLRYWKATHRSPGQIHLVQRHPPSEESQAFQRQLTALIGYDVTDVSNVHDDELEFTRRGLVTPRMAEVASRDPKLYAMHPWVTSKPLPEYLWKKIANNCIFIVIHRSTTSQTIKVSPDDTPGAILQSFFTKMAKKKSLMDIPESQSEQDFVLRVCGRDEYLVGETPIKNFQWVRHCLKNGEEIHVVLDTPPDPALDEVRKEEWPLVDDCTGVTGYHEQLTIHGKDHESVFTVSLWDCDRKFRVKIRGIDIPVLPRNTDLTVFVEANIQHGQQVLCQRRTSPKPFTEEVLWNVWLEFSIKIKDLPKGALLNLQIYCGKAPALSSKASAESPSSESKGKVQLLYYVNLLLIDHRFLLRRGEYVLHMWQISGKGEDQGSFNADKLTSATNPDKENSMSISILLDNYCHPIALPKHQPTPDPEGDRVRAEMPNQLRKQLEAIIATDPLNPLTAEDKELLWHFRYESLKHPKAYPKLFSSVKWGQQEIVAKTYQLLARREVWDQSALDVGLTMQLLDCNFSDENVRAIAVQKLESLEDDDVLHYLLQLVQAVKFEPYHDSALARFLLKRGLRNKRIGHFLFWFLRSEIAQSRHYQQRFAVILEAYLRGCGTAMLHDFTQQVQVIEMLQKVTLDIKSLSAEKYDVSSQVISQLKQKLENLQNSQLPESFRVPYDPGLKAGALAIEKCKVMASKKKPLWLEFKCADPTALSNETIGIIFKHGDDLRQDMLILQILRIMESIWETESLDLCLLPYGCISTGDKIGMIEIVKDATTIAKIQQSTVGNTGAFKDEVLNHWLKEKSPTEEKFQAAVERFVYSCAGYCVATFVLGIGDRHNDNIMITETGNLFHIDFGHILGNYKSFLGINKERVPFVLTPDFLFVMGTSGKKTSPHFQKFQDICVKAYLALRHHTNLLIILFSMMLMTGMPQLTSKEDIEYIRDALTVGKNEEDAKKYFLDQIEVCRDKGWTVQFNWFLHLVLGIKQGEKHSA
Chain of PI3Kγ (Q8WYR1 whole entry partner): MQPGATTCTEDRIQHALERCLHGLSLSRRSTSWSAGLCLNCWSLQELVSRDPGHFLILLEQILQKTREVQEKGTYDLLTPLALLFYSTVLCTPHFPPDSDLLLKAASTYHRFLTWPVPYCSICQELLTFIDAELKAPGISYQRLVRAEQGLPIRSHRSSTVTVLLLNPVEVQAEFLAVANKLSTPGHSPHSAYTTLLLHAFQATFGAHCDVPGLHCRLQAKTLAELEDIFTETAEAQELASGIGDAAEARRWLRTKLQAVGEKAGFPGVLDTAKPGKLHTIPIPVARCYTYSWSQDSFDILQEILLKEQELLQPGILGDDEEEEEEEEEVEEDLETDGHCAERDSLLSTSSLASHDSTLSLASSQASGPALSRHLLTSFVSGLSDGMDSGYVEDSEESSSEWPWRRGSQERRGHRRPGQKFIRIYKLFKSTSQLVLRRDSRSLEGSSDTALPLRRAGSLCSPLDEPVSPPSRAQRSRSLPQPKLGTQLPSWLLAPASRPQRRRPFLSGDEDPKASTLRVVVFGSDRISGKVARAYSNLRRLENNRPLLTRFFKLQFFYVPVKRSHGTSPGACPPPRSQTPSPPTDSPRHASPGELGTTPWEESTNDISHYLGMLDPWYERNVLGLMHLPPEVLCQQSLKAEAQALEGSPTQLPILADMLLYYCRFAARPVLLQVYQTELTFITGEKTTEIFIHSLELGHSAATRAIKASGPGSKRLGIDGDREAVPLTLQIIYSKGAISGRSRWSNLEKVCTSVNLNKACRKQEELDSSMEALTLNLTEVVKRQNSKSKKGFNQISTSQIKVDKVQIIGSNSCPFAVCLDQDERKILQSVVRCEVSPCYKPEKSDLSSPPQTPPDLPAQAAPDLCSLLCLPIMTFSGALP
Chain of PI3Kδ (O00329 whole entry): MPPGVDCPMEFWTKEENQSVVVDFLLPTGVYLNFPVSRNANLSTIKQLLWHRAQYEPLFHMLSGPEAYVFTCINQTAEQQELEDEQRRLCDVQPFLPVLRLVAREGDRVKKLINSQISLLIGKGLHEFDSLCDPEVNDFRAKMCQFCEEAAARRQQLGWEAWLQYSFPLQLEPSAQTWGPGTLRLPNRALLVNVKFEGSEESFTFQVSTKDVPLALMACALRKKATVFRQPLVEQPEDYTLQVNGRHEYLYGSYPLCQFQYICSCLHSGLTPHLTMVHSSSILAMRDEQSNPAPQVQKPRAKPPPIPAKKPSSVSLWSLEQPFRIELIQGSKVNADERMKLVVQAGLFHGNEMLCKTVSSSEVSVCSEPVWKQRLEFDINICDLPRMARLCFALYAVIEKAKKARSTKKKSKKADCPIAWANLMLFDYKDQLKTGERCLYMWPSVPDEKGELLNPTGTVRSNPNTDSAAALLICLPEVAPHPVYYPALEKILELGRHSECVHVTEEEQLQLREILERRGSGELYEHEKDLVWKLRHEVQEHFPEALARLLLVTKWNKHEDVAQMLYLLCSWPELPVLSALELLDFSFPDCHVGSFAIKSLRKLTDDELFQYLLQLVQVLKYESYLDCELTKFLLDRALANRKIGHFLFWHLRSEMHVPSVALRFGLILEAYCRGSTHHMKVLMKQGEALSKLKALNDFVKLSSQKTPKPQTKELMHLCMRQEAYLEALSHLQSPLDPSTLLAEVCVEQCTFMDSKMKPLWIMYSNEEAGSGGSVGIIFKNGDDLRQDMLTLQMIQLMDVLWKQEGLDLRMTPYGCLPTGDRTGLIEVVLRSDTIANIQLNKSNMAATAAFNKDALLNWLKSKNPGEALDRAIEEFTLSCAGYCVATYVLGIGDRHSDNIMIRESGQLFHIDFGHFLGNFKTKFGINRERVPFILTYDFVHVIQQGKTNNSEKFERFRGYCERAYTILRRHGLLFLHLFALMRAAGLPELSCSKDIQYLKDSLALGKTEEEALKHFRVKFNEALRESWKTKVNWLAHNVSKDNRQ
Chain of PI3Kδ (P27986 whole entry partner): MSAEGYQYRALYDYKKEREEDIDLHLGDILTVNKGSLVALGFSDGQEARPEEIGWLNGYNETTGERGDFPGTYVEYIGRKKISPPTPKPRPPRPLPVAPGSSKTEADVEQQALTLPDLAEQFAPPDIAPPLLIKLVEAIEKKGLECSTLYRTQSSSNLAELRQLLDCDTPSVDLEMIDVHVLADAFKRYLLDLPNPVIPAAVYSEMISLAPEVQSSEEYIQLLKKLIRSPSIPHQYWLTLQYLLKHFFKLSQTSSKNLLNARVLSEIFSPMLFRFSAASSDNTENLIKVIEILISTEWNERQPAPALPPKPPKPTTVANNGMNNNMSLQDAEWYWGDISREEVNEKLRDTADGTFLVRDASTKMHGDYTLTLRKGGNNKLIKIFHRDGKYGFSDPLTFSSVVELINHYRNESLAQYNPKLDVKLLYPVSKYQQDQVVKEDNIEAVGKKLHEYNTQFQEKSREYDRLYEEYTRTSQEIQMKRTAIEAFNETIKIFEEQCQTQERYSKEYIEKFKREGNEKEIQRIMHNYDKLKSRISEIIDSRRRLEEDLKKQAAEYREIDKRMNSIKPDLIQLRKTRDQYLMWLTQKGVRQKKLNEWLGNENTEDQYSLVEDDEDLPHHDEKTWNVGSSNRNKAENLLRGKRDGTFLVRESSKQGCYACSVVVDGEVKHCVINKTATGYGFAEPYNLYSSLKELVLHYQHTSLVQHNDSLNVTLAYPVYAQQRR
Chain of PI3Kα (P42336 whole entry): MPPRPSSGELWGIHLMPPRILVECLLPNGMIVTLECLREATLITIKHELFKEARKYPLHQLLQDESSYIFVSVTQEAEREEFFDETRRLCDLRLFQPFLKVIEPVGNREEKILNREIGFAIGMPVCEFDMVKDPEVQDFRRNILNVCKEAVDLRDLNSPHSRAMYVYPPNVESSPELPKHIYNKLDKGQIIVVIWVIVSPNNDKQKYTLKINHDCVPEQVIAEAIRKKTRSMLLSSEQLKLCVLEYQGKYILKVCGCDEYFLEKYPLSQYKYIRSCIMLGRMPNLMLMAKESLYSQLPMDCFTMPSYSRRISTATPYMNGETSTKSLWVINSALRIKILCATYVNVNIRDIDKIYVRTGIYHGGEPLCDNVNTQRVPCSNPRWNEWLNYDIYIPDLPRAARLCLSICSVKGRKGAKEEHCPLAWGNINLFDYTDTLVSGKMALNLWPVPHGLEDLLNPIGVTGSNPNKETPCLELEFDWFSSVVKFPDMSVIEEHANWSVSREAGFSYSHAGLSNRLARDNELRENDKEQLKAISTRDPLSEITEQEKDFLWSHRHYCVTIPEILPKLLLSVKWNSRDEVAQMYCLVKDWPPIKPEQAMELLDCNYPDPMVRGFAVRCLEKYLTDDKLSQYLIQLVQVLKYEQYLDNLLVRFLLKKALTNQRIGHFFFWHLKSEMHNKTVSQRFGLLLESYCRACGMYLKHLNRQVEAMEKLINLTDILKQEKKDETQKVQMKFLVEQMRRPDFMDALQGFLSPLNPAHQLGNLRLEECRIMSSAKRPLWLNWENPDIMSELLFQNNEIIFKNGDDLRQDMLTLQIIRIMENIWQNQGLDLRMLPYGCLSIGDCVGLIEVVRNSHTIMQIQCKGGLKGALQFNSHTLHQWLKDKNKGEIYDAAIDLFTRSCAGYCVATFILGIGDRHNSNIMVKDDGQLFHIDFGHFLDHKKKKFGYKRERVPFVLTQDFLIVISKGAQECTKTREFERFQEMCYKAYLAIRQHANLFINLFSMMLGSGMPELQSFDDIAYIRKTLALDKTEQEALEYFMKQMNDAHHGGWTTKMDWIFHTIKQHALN
Chain of PI3Kα (P27986 whole entry partner): as the sequence (P27986 whole entry partner) above

| SMILES | IC50 (PI3Kδ) | IC50 (PI3Kβ; bound given in nM) | IC50 (PI3Kγ; bound given in uM) | IC50 (PI3Kα) | IC50 (PI3Kβ; bound given in uM) | IC50 (PI3Kγ; bound given in nM) |
| --- | --- | --- | --- | --- | --- | --- |
| C[C@H](Nc1ncnc(N)c1C#Cc1ccccn1)c1nc2cccc(Cl)c2c(=O)n1-c1cccc(C(N)=O)c1 [Compound 38a, (S)-3-(2-(1-(6-amino-5-(pyridin-2-ylethynyl)pyrimidin-4-ylamino)ethyl)-5-chloro-4-oxoquinazolin-3(4H)-yl)benzamide] | < 100 nM | < 100 nM | > 1 µM |  |  |  |
| C[C@H](Nc1ncnc(N)c1C#Cc1cncnc1)c1nc2cccc(Cl)c2c(=O)n1-c1ccccc1 [Compound 42a, (S)-2-(1-(6-amino-5-(pyrimidin-5-ylethynyl)pyrimidin-4-ylamino)ethyl)-5-chloro-3-phenylquinazolin-4(3H)-one] | < 100 nM |  |  | > 1 µM | > 1000 nM |  |
| C[C@H](Nc1ncnc(N)c1C#Cc1cccnc1)c1nc2cccc(Cl)c2c(=O)n1-c1cc(F)cc(F)c1 [Compound 43a, (S)-2-(1-(6-amino-5-(pyridin-3-ylethynyl)pyrimidin-4-ylamino)ethyl)-5-chloro-3-(3,5-difluorophenyl)quinazolin-4(3H)-one] | < 100 nM |  |  | > 1 µM | > 1000 nM |  |
| C[C@H](Nc1ncnc(N)c1C#Cc1ccc2nc(N)sc2c1)c1nc2cccc(Cl)c2c(=O)n1-c1ccccc1 [Compound 46a, (S)-2-(1-(6-amino-5-((2-aminobenzo [d]thiazol-6-yl)ethynyl)pyrimidin-4-ylamino)ethyl)-5-chloro-3-phenylquinazolin-4(3H)-one] | < 100 nM | < 100 nM |  |  |  | < 0.1 µM |
| C[C@H](Nc1ncnc(N)c1C#Cc1cn[nH]c1)c1nc2cccc(Cl)c2c(=O)n1-c1ccccc1 [Compound 49a, (S)-2-(1-(5-((1H-pyrazol-4-yl)ethynyl)-6-aminopyrimidin-4-ylamino)ethyl)-5-chloro-3-phenylquinazolin-4(3H)-one] | < 100 nM | < 100 nM |  |  |  | < 0.1 µM |
| C[C@H](Nc1ncnc(N)c1C#Cc1ccccc1)c1nc2cccc(Cl)c2c(=O)n1-c1ccccc1 [Compound 51a, (S)-2-(1-(6-amino-5-(phenylethynyl)pyrimidin-4-ylamino)ethyl)-5-chloro-3-phenylquinazolin-4(3H)-one] | < 100 nM | < 100 nM |  |  |  | < 0.1 µM |
| C[C@H](Nc1ncnc(N)c1C#Cc1ccc(F)cn1)c1nc2cccc(C(F)F)c2c(=O)n1-c1ccccc1 [Compound 67a, (S)-2-(1-((6-amino-5-((5-fluoropyridin-2-yl)ethynyl)pyrimidin-4-yl)amino)ethyl)-5-(difluoromethyl)-3-phenylquinazolin-4(3H)-one] | < 100 nM |  |  | > 1 µM | > 1000 nM |  |
| C[C@H](Nc1nc(N)nc(N)c1C#Cc1ccc(F)cn1)c1nc2cccc(Cl)c2c(=O)n1-c1cc(F)cc(F)c1 [Compound 78a, (S)-5-chloro-2-(1-((2,6-diamino-5-((5-fluoropyridin-2-yl)ethynyl)pyrimidin-4-yl)amino)ethyl)-3-(3,5-difluorophenyl)quinazolin-4(3H)-one] | < 100 nM |  |  | > 1 µM | > 1000 nM |  |

Results, then the compound that gave them:

| IC50 (PI3Kδ) | IC50 (PI3Kβ; bound given in nM) | IC50 (PI3Kγ; bound given in uM) | IC50 (PI3Kα) | IC50 (PI3Kβ; bound given in uM) | IC50 (PI3Kγ; bound given in nM) | SMILES |
| --- | --- | --- | --- | --- | --- | --- |
| < 100 nM |  |  | > 1 µM | > 1000 nM |  | C[C@H](Nc1nc(N)nc(N)c1C#Cc1ccc(F)cn1)c1nc2cccc(Cl)c2c(=O)n1-c1ccccc1 [Compound 83a, (S)-5-chloro-2-(1-((2,6-diamino-5-((5-fluoropyridin-2-yl)ethynyl)pyrimidin-4-yl)amino)ethyl)-3-phenylquinazolin-4(3H)-one] |
| < 100 nM |  |  | > 1 µM | > 1000 nM |  | C[C@H](Nc1ncnc(N)c1C#Cc1ccc(F)cn1)c1nc2c(F)ccc(Cl)c2c(=O)n1-c1cc(F)cc(F)c1 [Compound 84a, (S)-2-(1-((6-amino-5-((5-fluoropyridin-2-yl)ethynyl)pyrimidin-4-yl)amino)ethyl)-5-chloro-3-(3,5-difluorophenyl)-8-fluoroquinazolin-4(3H)-one] |
| < 100 nM |  |  | > 1 µM | > 1000 nM |  | C[C@H](Nc1ncnc(N)c1C#Cc1ccc(C(N)=O)cn1)c1nc2cccc(Cl)c2c(=O)n1-c1cc(F)cc(F)c1 [Compound 136a, (S)-6-((4-amino-6-((1-(5-chloro-3-(3,5-difluorophenyl)-4-oxo-3,4-dihydroquinazolin-2-yl)ethyl)amino)pyrimidin-5-yl)ethynyl)nicotinamide] |
| < 100 nM | < 100 nM |  | > 1 µM |  |  | Cc1cccc(C#Cc2c(N)ncnc2N[C@@H](C)c2nc3cccc(Cl)c3c(=O)n2-c2ccccc2)n1 [Compound 141a, (S)-2-(1-((6-amino-5-((6-methylpyridin-2-yl)ethynyl)pyrimidin-4-yl)amino)ethyl)-5-chloro-3-phenylquinazolin-4(3H)-one] |
| < 100 nM | < 100 nM |  | > 1 µM |  |  | C[C@H](Nc1ncnc(N)c1C#Cc1ncccc1C(F)(F)F)c1nc2cccc(Cl)c2c(=O)n1-c1ccccc1 [Compound 142a, (S)-2-(1-((6-amino-5-((3-(trifluoromethyl)pyridin-2-yl)ethynyl)pyrimidin-4-yl)amino)ethyl)-5-chloro-3-phenylquinazolin-4(3H)-one] |
| < 100 nM | < 100 nM |  | > 1 µM |  |  | Cc1cccnc1C#Cc1c(N)ncnc1N[C@@H](C)c1nc2cccc(Cl)c2c(=O)n1-c1ccccc1 [Compound 143a, (S)-2-(1-((6-amino-5-((3-methylpyridin-2-yl)ethynyl)pyrimidin-4-yl)amino)ethyl)-5-chloro-3-phenylquinazolin-4(3H)-one] |
| < 100 nM | < 100 nM |  |  |  | < 0.1 µM | C[C@H](Nc1ncnc(N)c1C#Cc1cc(CO)ccn1)c1nc2cccc(Cl)c2c(=O)n1-c1ccccc1 [Compound 154a, (S)-2-(1-((6-amino-5-((4-(hydroxymethyl)pyridin-2-yl)ethynyl)pyrimidin-4-yl)amino)ethyl)-5-chloro-3-phenylquinazolin-4(3H)-one] |
| < 100 nM | > 1 nM |  |  |  | < 0.1 µM | C[C@H](Nc1ncnc(N)c1C#Cc1cccc(CO)n1)c1nc2cccc(Cl)c2c(=O)n1-c1ccccc1 [Compound 155a, (S)-2-(1-((6-amino-5-((6-(hydroxymethyl)pyridin-2-yl)ethynyl)pyrimidin-4-yl)amino)ethyl)-5-chloro-3-phenylquinazolin-4(3H)-one] |
| < 100 nM | < 100 nM |  | > 1 µM |  |  | CC(O)c1cccc(C#Cc2c(N)ncnc2N[C@@H](C)c2nc3cccc(Cl)c3c(=O)n2-c2ccccc2)n1 (stereo partly drawn) [Compound 157a, 2-((1S)-1-((6-amino-5-((6-(1-hydroxyethyl)pyridin-2-yl)ethynyl)pyrimidin-4-yl)amino)ethyl)-5-chloro-3-phenylquinazolin-4(3H)-one] |
| < 100 nM | < 100 nM | > 1 µM |  |  |  | C[C@H](Nc1ncnc(N)c1C#Cc1cc(C(=O)O)ccn1)c1nc2cccc(Cl)c2c(=O)n1-c1ccccc1 [Compound 160a, (S)-2-((4-amino-6-((1-(5-chloro-4-oxo-3-phenyl-3,4-dihydroquinazolin-2-yl)ethyl)amino)pyrimidin-5-yl)ethynyl)isonicotinic acid] |
| < 100 nM |  |  | > 1 µM | > 1000 nM |  | Cc1ccc(C#Cc2c(N)ncnc2N[C@@H](C)c2nc3cccc(Cl)c3c(=O)n2-c2cc(F)cc(F)c2)nc1 [Compound 164a, (S)-2-(1-((6-amino-5-((5-methylpyridin-2-yl)ethynyl)pyrimidin-4-yl)amino)ethyl)-5-chloro-3-(3,5-difluorophenyl)quinazolin-4(3H)-one] |
